In series [1] the target is T1, Tyrosine-protein kinase JAK1 (Homo sapiens, UniProt P23458).
Another series has as its target LRRK2 (Homo sapiens, UniProt Q5S007). The experiment in a line: Inhibition of recombinant human GST-tagged LRRK2 (970 to 2527 residues) expressed in baculovirus expression system using LRRKtide as substrate at 0.1 uM incubated for 60 mins by Adapta assay relative to control. As to conditions: probe LRRKtide.
For series [2], the target named is Leucine-rich repeat serine/threonine-protein kinase 2 (Homo sapiens, UniProt Q5S007). The experiment in a line: Inhibition of recombinant human GST-tagged LRRK2 (970 to 2527 residues) expressed in baculovirus expression system using LRRKtide as substrate incubated for 60 mins by Adapta assay.
Series [3] can be described thus: Metabolic stability in human liver microsomes assessed as intrinsic clearance at 1 uM measured upto 60 mins by LC-MS/MS analysis. It counts as ADME, Microsome. As to conditions: read-out: CLH. (In general: Liver microsomes are vesicles of endoplasmic reticulum, rich in cytochrome P450 enzymes.)
Series [4] in a line: Lipophilicity, logD of compound. As to conditions: octanol/water. Type of series: physicochemical.
Series [5] deals with Tyrosine-protein kinase JAK2 (Homo sapiens, UniProt O60674).
Description: Inhibition of recombinant human JAK2 (812 to 1132 residues) expressed in insect cells using Y1-B as substrate incubated for 30 mins by microfluidic mobility shift assay
In the next series the target is Janus Kinase (JAK) (Homo sapiens, UniProt P52333+P23458+O60674+P29597). As to conditions: beas-2b.
Series [6] in a line: in vitro. As to conditions: dog, MDCK.
Description: Apparent permeability across apical to basolateral side in MDCK cells at 10 uM incubated upto 180 mins by LC/MS-MS analysis
Series [7] can be described thus: in vitro. As to conditions: dog, MDCK. This is another data set of the same source.
Description: Efflux ratio of apparent permeability basolateral to apical over apical to basolateral side in MDCK cells at 10 uM incubated upto 180 mins by LC/MS-MS analysis
For series [8], the target named is T1, Tyrosine-protein kinase JAK1. The experiment in a line: biochemical.
Description: Inhibition of recombinant human JAK1 (854 to 1154 residues) expressed in insect cells using Y1-B as substrate incubated for 30 mins by microfluidic mobility shift assay

T1 sequence (P23458 whole entry, the tested form may be a part): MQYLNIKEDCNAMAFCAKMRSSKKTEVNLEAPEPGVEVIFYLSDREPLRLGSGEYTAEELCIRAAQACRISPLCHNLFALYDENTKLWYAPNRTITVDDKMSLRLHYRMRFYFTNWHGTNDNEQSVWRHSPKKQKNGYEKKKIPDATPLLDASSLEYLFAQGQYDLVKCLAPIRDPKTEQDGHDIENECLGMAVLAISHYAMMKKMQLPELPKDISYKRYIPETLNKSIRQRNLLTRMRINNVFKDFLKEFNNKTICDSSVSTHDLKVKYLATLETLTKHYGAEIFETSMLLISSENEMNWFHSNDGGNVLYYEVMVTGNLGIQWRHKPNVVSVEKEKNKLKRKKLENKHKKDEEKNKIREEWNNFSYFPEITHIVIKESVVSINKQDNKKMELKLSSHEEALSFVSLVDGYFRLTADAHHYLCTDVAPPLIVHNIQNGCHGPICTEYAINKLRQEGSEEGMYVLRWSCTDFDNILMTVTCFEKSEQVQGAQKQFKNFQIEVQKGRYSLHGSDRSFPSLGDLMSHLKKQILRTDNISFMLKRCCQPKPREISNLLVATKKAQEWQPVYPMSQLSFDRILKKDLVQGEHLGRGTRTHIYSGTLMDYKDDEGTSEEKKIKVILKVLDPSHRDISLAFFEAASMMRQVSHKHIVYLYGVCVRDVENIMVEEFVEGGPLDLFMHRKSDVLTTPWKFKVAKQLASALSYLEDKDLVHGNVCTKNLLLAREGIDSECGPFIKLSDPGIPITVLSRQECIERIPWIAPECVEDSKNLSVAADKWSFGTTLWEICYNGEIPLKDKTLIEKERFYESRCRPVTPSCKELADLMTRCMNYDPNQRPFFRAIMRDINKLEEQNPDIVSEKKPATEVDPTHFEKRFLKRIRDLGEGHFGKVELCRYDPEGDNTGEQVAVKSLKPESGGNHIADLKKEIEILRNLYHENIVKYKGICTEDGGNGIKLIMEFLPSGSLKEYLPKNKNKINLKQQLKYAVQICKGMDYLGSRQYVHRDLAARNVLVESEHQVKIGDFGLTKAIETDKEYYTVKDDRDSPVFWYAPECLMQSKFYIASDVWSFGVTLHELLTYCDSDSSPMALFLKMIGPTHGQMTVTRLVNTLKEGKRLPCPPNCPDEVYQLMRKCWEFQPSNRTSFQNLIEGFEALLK
LRRK2, sequence (Q5S007 whole entry, the tested form may be a part): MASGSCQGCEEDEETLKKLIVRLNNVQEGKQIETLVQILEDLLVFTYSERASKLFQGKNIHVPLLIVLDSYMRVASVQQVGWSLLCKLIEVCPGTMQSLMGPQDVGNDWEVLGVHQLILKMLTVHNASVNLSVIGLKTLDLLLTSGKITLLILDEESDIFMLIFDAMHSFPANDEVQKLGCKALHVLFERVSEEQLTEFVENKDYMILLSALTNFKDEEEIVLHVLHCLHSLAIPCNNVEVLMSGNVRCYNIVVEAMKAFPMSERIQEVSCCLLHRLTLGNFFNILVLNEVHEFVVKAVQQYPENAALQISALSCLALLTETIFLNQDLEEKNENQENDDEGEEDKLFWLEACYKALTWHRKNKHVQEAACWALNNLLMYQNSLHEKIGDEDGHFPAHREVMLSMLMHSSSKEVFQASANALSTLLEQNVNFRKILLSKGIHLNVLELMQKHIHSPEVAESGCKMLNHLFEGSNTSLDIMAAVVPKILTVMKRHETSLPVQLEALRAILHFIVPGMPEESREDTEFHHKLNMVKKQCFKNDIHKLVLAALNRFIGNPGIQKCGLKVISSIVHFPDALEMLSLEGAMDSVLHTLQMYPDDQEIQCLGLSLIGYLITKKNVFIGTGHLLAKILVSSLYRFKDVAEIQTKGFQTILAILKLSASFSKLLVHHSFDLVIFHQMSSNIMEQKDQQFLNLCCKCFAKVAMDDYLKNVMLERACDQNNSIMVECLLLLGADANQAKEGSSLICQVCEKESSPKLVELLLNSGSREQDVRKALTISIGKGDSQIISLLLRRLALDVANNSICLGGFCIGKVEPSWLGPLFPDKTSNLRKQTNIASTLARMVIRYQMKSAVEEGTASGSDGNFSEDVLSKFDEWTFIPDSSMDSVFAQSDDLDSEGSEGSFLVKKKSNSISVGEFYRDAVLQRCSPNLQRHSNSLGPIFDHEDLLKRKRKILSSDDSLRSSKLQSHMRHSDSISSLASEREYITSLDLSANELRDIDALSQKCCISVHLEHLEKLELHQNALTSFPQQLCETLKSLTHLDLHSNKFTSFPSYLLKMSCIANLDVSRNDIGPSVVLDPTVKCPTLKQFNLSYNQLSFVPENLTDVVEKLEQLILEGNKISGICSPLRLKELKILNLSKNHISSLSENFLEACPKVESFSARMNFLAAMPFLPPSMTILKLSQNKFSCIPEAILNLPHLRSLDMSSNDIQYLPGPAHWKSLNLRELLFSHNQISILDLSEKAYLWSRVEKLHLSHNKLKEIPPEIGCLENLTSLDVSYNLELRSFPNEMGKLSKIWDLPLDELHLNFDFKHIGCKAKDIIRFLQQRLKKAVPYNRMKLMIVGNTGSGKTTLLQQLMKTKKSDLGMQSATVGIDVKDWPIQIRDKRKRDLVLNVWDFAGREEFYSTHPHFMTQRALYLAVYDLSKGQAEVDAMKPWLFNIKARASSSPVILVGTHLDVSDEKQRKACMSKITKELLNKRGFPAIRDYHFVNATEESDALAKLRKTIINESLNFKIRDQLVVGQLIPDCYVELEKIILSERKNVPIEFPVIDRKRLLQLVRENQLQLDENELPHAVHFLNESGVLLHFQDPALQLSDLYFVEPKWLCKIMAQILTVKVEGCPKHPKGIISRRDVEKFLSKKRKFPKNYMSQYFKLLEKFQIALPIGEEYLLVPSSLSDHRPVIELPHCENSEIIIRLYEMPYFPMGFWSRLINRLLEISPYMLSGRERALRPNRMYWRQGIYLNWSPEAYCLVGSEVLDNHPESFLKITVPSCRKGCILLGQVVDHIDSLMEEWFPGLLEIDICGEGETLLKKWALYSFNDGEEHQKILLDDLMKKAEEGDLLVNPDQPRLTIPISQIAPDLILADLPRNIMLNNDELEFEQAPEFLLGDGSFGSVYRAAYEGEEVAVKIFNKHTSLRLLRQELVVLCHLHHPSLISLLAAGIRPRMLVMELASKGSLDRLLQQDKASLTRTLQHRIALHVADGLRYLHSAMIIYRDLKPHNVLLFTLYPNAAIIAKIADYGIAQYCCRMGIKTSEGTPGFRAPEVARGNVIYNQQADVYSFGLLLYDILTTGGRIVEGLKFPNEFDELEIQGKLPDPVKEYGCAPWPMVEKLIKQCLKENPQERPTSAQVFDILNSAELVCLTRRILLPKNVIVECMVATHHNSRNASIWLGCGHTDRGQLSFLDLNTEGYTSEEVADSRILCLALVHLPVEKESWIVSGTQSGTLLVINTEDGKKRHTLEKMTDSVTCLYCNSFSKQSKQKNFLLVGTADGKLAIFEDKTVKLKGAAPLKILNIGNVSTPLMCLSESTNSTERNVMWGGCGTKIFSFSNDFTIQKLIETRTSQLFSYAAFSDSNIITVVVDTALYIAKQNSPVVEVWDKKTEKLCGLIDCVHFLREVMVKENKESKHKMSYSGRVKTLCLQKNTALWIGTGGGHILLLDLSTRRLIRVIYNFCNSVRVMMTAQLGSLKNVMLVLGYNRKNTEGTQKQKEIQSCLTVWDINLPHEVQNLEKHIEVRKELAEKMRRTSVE
Leucine-rich repeat serine/threonine-protein kinase 2, sequence (Q5S007 whole entry, the tested form may be a part): as above
Tyrosine-protein kinase JAK2, sequence (O60674 whole entry): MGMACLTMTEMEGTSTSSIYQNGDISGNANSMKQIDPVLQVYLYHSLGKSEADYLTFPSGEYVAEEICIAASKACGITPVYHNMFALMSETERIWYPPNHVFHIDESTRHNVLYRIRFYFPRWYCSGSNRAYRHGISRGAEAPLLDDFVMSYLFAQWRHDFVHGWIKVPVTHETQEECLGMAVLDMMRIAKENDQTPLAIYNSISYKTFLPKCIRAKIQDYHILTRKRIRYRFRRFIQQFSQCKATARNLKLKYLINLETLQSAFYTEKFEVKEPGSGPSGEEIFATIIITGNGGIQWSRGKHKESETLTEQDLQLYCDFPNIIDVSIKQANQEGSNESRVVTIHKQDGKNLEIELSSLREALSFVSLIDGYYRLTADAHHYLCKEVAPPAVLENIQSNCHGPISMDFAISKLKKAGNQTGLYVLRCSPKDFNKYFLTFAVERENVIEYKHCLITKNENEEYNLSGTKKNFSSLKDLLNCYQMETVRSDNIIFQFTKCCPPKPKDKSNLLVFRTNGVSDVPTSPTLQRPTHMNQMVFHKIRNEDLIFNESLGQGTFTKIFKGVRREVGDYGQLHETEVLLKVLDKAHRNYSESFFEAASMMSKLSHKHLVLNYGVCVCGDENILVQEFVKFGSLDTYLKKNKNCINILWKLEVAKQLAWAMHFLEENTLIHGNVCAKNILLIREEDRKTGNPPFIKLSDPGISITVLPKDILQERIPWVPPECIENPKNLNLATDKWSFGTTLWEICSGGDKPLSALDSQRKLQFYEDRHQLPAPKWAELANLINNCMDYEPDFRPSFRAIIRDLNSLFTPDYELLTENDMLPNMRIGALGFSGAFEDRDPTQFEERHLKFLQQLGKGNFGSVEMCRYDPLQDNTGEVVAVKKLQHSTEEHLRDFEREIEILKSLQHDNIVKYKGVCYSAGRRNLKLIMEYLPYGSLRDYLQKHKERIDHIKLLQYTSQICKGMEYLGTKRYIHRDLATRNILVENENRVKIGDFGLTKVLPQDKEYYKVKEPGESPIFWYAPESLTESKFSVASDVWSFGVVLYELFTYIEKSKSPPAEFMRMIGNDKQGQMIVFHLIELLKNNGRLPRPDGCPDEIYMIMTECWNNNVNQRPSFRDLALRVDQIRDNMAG
Description for Janus Kinase (JAK): Inhibition of JAK in human BEAS-2B cells assessed as reduction in IL13-induced STAT6 phosphorylation incubated for 1 hr followed by IL13 addition and measured after 15 mins by immunofluorescence assay

`O=C(Nc1c[nH]nc1-c1cc(Cl)ccc1OC(F)F)c1cncc2c[nH]nc12`: the IC50 (usually the concentration that inhibits the measured activity by half) was determined as 1.9 nM in [1], 79 nM in series [2] and 18 nM against Janus Kinase (JAK). Further, the Ratio IC50 in the series filed under Homo sapiens came to 41. Also, on LRRK2, the inhibition (as a rule, the change of the read-out against control, counted positive when it falls) at 1 h, 0.1 µM was 52%. For the same molecule, in series [3], the CLint scaled at 1 µM stood at 15 mL/min/kg. Besides, the logD (usually the decadic logarithm of the distribution of all forms, ionised or not, between an organic phase and buffer at a given pH) in series [4] turned out to be 2.7. Also, the figures for the Ki in [5] and in series [8] were 0.49 nM and 0.56 nM, respectively. Also, in the series “in vitro [6]”, the apical-to-basolateral permeability (Papp A→B) (usually how fast a substance crosses the layer from the apical side) at 3 h, 10 µM worked out at 9.5 ×10⁻⁶ cm/s. Also, the efflux ratio (as a rule, a quotient of directional permeabilities that is used to spot active efflux) at 3 h, 10 µM in the series “in vitro [7]” is 1.9.

These data come from ChEMBL document CHEMBL4665643 (Bioorg Med Chem Lett, 2019).
